Laboratory results: patent US12721838B2 (Henry Ford Health System, priority 2020, dated 2026)

Each molecule was assayed against T1, Trib2-Luciferase (Luc-Trib2) fusion (Homo sapiens, UniProt Q92519) (assay: cell-based). Conditions: HFF, read-out: Luciferase activity (%).
T1 sequence (Q92519 with tags, fused parts or gaps): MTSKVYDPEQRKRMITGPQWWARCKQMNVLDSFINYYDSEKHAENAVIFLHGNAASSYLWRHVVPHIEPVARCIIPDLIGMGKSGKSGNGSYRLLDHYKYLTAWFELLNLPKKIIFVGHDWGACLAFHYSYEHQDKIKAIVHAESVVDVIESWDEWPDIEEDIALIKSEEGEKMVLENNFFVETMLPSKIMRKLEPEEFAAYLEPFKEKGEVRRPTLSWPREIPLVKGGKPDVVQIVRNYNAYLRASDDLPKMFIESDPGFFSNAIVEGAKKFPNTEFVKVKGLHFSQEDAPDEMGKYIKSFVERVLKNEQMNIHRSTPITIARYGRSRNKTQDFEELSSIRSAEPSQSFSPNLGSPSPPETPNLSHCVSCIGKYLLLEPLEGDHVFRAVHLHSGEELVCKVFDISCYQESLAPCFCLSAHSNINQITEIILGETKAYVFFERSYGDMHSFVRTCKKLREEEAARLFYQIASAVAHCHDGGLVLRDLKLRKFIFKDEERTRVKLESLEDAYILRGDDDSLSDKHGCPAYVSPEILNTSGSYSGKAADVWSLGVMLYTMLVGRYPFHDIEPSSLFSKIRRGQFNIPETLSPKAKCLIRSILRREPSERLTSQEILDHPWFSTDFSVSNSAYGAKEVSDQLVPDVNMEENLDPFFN
`O=C(O)CCCc1ccc(N(CCCl)CCCl)cc1` [Chlorambucil] was tested, and the activity at 10 µM was 96%. Molecule `C=C[C@]1(C)C[C@@H](OC(=O)CSC(C)(C)CNC(=O)[C@H](N)C(C)C)[C@]2(C)[C@H](C)CC[C@]3(CCC(=O)[C@H]32)[C@@H](C)[C@@H]1O` [Valnemulin] has an activity at 10 µM of 83%. Work on `Cc1nnc(NS(=O)(=O)c2ccc(N)cc2)s1` [Sulfamethizole] yielded an activity at 10 µM of 94%. `O[C@@H]1CO[C@H]2[C@@H]1OC[C@@H]2O` [Isosorbide] gave an activity at 10 µM of 91%. `COc1ccccc1OCC(O)CN1CCN(CC(=O)Nc2c(C)cccc2C)CC1` (centres unmarked) [Ranolazine] was tested, and the activity at 10 µM was 100%. With `COc1ccc(CN2CCNCC2)c(OC)c1OC` [Trimetazidine] the activity at 10 µM was 100%. For `CS(=O)(=O)OCCCCOS(C)(=O)=O` [Busulfan], the activity at 10 µM was 100%. For `[H]/N=C(/N)NS(=O)(=O)c1ccc(N)cc1` [Sulfaguanidine], the activity at 10 µM was 84%. `CCCC1O[C@@H]2C[C@H]3[C@@H]4CCC5=CC(=O)C=C[C@]5(C)[C@H]4[C@@H](O)C[C@]3(C)[C@]2(C(=O)CO)O1` (some centres unmarked) [Budesonide] gave an activity at 10 µM of 83%. `CC(=O)N1C[C@H](O)C[C@H]1C(=O)O` [Oxaceprol] was tested, and the activity at 10 µM was 100%. For `CCCCc1nc(C)c(CC(=S)N(C)C)c(=O)n1Cc1ccc(-c2ccccc2-c2nnn[nH]2)cc1` [Fimasartan], the activity at 10 µM was 88%. `CCOC(=O)OC(C)OC1=C(C(=O)Nc2ccccn2)N(C)S(=O)(=O)c2ccccc21` (centres unmarked) [Ampiroxicam] was tested, and the activity at 10 µM was 28%. Work on `CC1CCc2c(N3CCC(O)CC3)c(F)cc3c(=O)c(C(=O)O)cn1c23` (centres unmarked) [Nadifloxacin] yielded an activity at 10 µM of 96%. For `COC(=O)C1=C(C#N)NC(C)=C(C(=O)OC(C)C)C1c1cccc([N+](=O)[O-])c1` (centres unmarked) [Nilvadipine], the activity at 10 µM was 89%. `O=C1Nc2ccc(Cl)cc2[C@@](C#CC2CC2)(C(F)(F)F)O1` [Efavirenz] showed an activity at 10 µM of 89%. With `NCCC[C@H](NC(=O)[C@@H]1CCCN1C(=O)[C@@H]1CSSC[C@H](N)C(=O)N[C@@H](Cc2ccc(O)cc2)C(=O)N[C@@H](Cc2ccccc2)C(=O)N[C@@H](CCC(N)=O)C(=O)N[C@@H](CC(N)=O)C(=O)N1)C(=O)NCC(N)=O` [Ornipressin] the activity at 10 µM was 27%. `c1cc(CN2CCCNCCNCCCNCC2)ccc1CN1CCCNCCNCCCNCC1` [Plerixafor] gave an activity at 10 µM of 93%. With `CN1CCC(=C2c3ccccc3CCn3c(C=O)cnc32)CC1` [Alcaftadine] the activity at 10 µM was 100%. Work on `OCCN(CCO)c1nc(N2CCCCC2)c2nc(N(CCO)CCO)nc(N3CCCCC3)c2n1` [Dipyridamole] yielded an activity at 10 µM of 98%. `CN1CCN2c3ccccc3Cc3ccccc3C2C1` (centres unmarked) [Mianserin] was tested, and the activity at 10 µM was 55%. `CC(C)N1CCN(c2ccc(OCC3COC(Cn4cncn4)(c4ccc(Cl)cc4Cl)O3)cc2)CC1` (centres unmarked) [Terconazole] gave an activity at 10 µM of 82%. In the case of `C#Cc1cccc(Nc2ncnc3cc(OCCOC)c(OCCOC)cc23)c1` [Erlotinib], the activity at 10 µM is reported as 50%. For `O=C(O)CCNC(=O)c1ccccc1` [Betamipron], the activity at 10 µM was 87%. Work on `CC(/C=C1\SC(=S)N(CC(=O)O)C1=O)=C\c1ccccc1` [Epalrestat] yielded an activity at 10 µM of 53%. Work on `OC1(c2ccc(Cl)c(C(F)(F)F)c2)CCN(CCCC(c2ccc(F)cc2)c2ccc(F)cc2)CC1` [Penfluridol] yielded an activity at 10 µM of 71%. `Cn1c([N+](=O)[O-])cnc1COC(N)=O` [Ronidazole] gave an activity at 10 µM of 100%. In the case of `CCCc1nc(C(C)(C)O)c(C(=O)O)n1Cc1ccc(-c2ccccc2-c2nnn[nH]2)cc1` [Olmesartan], the activity at 10 µM is reported as 80%. `CC[C@]12CCCN3CCc4c(n(c5ccccc45)[C@@](O)(C(=O)OC)C1)[C@@H]32` [Vincamine] was tested, and the activity at 10 µM was 80%. `CC[C@@H](CO)NCCN[C@@H](CC)CO` [Ethambutol] showed an activity at 10 µM of 98%. `CN(C)[C@@H](CCOc1cccc2ccccc12)c1ccccc1` [Dapoxetine] was tested, and the activity at 10 µM was 88%. `COc1cc([C@@H]2c3cc4c(cc3[C@@H](O[C@@H]3O[C@@H]5CO[C@@H](c6cccs6)O[C@H]5[C@H](O)[C@H]3O)[C@H]3COC(=O)[C@H]23)OCO4)cc(OC)c1O` [Teniposide] gave an activity at 10 µM of 70%. `COc1cc2nc(N3CCN(C(=O)c4ccco4)CC3)nc(N)c2cc1OC` [Prazosin] was tested, and the activity at 10 µM was 49%.
